SMILES strings stand for the structures. Where “and” joins values, the source holds several entries; their conditions need not be identical. Equal entries are not always repeated.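 Cells were grown in 96-well plates and exposed to each compound for 48 hours at five concentrations; endpoints were interpolated linearly between bracketing concentrations, or set to the highest concentration if not reached. The concentration for 50% growth inhibition is given as GI50. The concentration for full growth arrest is given as TGI.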

Test in all cases: inhibition of tumour cell growth, NCI panel, 48 h
Experiment [1] relates to U251 CNS.
Experiment [2] deals with NCI-H460 lung.
Experiment [3] has as its system IGROV1 ovarian.
The test system of experiment [4] is RPMI-8226 leukemia.
Experiment [5] concerns HCT-15 colon.
For experiment [6], the system named is HT29 colon.
In experiment [7] the test system is UACC-257 melanoma.
Experiment [8] has as its system MOLT-4 leukemia.
Experiment [9] concerns NCI-H522 lung.
Experiment [10] deals with NCI/ADR-RES ovarian.

Turning to `O=C(N/C(=C\c1ccc(/C=C(\NC(=O)c2ccccc2)c2nc3ccccc3s2)cc1)c1nc2ccccc2s1)c1ccccc1`, the TGI came out at 6.2 µM in experiment [1]; 14.6 µM in experiment [2]; 18.6 µM in experiment [3]; 37.3 µM in experiment [4]; 16 µM in experiment [5]; 19.1 µM in [6]. The TGI in experiment [7] is 17 µM; in experiment [8], 26.7 µM; in experiment [9], 4.1 µM.

With `CC1[C@@H]2CC=C3[C@H]4CCC5Cc6nc7c(nc6C[C@@]5(C)C4(O)CC(=O)[C@]32CO[C@]12OC(C)(C)CC2O)CC1CC[C@@H]2C3=C[C@H]4O[C@@]5(O[C@@](C)(CO)C[C@@H]5O)C(C)[C@@]4(O)[C@]3(C)[C@@H](O)CC2[C@]1(C)C7` (some centres not stated), the GI50 in experiment [1] was 0.000112 µM and 0.00036 µM; in experiment [2] it was 0.000125 µM and 0.00036 µM; in experiment [3], 0.00258 µM and 0.0049 µM; in [4], below 0.00036 µM; in experiment [5] it was 0.00234 µM and 0.0127 µM; in experiment [6] it was 0.000918 µM and 0.00123 µM. Further, the GI50 in experiment [8] was 0.00012 µM and 0.00036 µM. For the same compound, the TGI was 0.0745 µM and 0.0955 µM in experiment [1]; 0.0155 µM and 0.14 µM in experiment [2]; above 3.6 µM in [3]; 0.000322 µM and < 0.00036 µM in experiment [4]; 0.0737 µM and 0.589 µM in experiment [5]; 0.0486 µM and 0.0623 µM in experiment [6]. Besides, the TGI is 0.000159 µM and 0.00114 µM in [8]; above 3.6 µM in experiment [10].

With `Cn1c(=O)c(C(=O)NC(=O)NCCCCCOC(=O)CCCCCCCCCCC(=O)OCCCCCNC(=O)NC(=O)c2cn(Cc3ccccc3)c(=O)n(C)c2=O)cn(Cc2ccccc2)c1=O`, the TGI in experiment [1], in experiment [2], in experiment [3], in [4], in experiment [5] and in [6] was above 100 µM each time. Moreover, the TGI in experiment [7] and in experiment [9] was above 100 µM in each case.

Turning to `CC1(C(=O)O)CCOc2ccccc21` (configuration not stated), the TGI in [2], in experiment [3], in [4], in experiment [5], in [6] and in experiment [7] was above 100 µM each time. The compound also showed a TGI in experiment [8] above 100 µM.

On to `O=C(Nc1nc2ccc([N+](=O)[O-])cc2s1)C(=O)C(C(=O)c1ccncc1)C1OC(=O)c2ccccc21` (configuration not stated), for which the TGI in experiment [1], in [3], in experiment [4], in experiment [5], in experiment [6] and in [7] was above 100 µM each time. Besides, in experiment [8], the TGI was above 100 µM.

Take `Cc1cnccc1N=Nc1ccc(N(C)C)cc1`: the TGI in experiment [1] was 70.9 µM; in [2] it was above 100 µM; in [3], 99.6 µM; in experiment [4], 48.3 µM; in experiment [5], above 100 µM; in experiment [6] it was 53.9 µM. Further, the TGI in [7] came out at 53.5 µM; in [8] it was 79.5 µM; in experiment [10], 46.4 µM.

With `CCn1c(=O)c2ccccc2n2c(=O)c3cc4ccccc4cc3nc12`, the TGI in [1], in [2], in experiment [3], in [4], in experiment [5] and in [6] was above 100 µM each time. Moreover, the TGI in [7], in experiment [8] and in experiment [9] was above 100 µM each time.

`NCc1c(C(N)=O)ncn1Cc1ccccc1`: the TGI in [1], in [2], in experiment [3], in experiment [4], in experiment [5] and in experiment [6] was above 100 µM in each case. The TGI in experiment [7] and in [8] was above 100 µM each time.

In the case of `Cc1c(-c2nnc(-c3ccccc3)o2)c(=O)n(-c2ccccc2)n1C`, the TGI in experiment [1], in experiment [2], in [3], in experiment [4], in experiment [5] and in experiment [6] was above 100 µM each time. In addition, the TGI in experiment [7], in experiment [8] and in experiment [9] was above 100 µM in each case.

As for `CCOC(=O)N1C(c2ccccc2)C=CC(c2ccccc2)N1C(=O)OCC` (configuration not stated), the TGI in [1], in experiment [2], in experiment [3], in [4], in [5] and in experiment [6] was above 100 µM throughout. The compound further returned a TGI in experiment [7] above 100 µM.

For the compound `O=C1C(=O)N(c2nccs2)C(=O)C(=O)C1c1nc2ccccc2s1`, the TGI in experiment [1], in [2], in experiment [3], in experiment [4], in experiment [5] and in experiment [6] was above 100 µM throughout. The TGI in experiment [7] was above 100 µM.

With `CC(C)CC12CC3CCC(CNC1=O)C32C` (configuration not stated), the TGI in experiment [1], in experiment [2], in [3], in [4], in [6] and in experiment [7] was above 100 µM each time. Moreover, the TGI in [8] and in experiment [9] was above 100 µM throughout.

For the compound `Cc1ccc(C2=C(c3ccc(C)cc3)C(c3ccc(C)cc3)=C(c3ccc(C)cc3)C2=O)cc1`, the TGI in experiment [1], in experiment [2], in experiment [3], in experiment [4], in [5] and in [6] was above 100 µM each time. Also, the TGI in experiment [7], in experiment [8] and in experiment [9] was above 100 µM in each case.

With `O=c1cccccc1[O-].O=c1cccccc1[O-].O=c1cccccc1[O-].[Ce+3]`, the GI50 in [1] is 18.3 µM. Further, the TGI in experiment [1] was 93.6 µM; in experiment [2], above 100 µM; in experiment [3], 88.4 µM; in experiment [4], above 100 µM; in experiment [5] it was above 100 µM; in [6] it was above 100 µM. The figures for the TGI in [7], in [8] and in [9] were 96.9 µM, above 100 µM and 44.1 µM, respectively.

In the case of `CCCCn1c2ccccc2c2ccc3c(c21)C(=O)C=CC3=O`, the TGI in experiment [1] is above 100 µM; in experiment [2] it was above 100 µM; in [3], above 100 µM; in experiment [4], above 100 µM; in experiment [5], above 100 µM; in [6] it was 3.46 µM. Moreover, the TGI in experiment [7], in [8] and in experiment [9] was above 100 µM in each case.

As for `CC1CCCc2c1c1ccc3c(O)cccc3c1oc2=O` (configuration not stated), the TGI in [1], in [2], in experiment [3], in experiment [4], in [5] and in experiment [6] was above 100 µM in each case. In addition, the TGI is above 100 µM in experiment [7], above 100 µM in experiment [8] and 55.8 µM in [9].

For `S=c1sc2cscc2s1`, the TGI in [1] is above 100 µM; in experiment [2], 53.8 µM; in experiment [3], above 100 µM; in experiment [4], above 100 µM; in experiment [5], above 100 µM; in experiment [6] it was above 100 µM. Besides, the figures for the TGI in experiment [7], in experiment [8] and in [9] were 44.7 µM, above 100 µM and 36.7 µM, respectively.

For the compound `CC(=O)[O-].[Zn].c1ccc(/C(=N\Nc2ccccn2)c2ccccn2)cc1`, the GI50 is 0.482 µM in experiment [1], 0.35 µM in experiment [2], 1.09 µM in experiment [6] and 0.131 µM in experiment [9]. The TGI in [1] was 1.88 µM; in [2] it was 1.32 µM; in [3], 0.272 µM; in [4], 2.86 µM; in [5], 11.6 µM; in experiment [6], 4.13 µM. Further, the figures for the TGI in experiment [7], in [8] and in experiment [9] were 2.08 µM, 0.227 µM and 2.06 µM, respectively.

Regarding `O=C(NC1C2CC3CC(C2)CC1C3)/C(Cl)=C1/Sc2ccccc2NC1=O` (configuration not stated), the TGI in experiment [1], in [2], in experiment [3], in [5], in experiment [6] and in experiment [7] was above 100 µM in each case. Also, the TGI in [8] and in experiment [9] was above 100 µM in each case.

On to `OCC(O)C(O)C(O)c1nn(-c2ccccc2)c2nc3cc(Cl)c(Cl)cc3nc12` (configuration not stated), for which the TGI in [1] is above 100 µM; in experiment [2], above 100 µM; in experiment [3], above 100 µM; in experiment [4], above 100 µM; in [6], 57 µM; in experiment [7], above 100 µM. The TGI was 87.6 µM in experiment [8] and above 100 µM in [9].

On to `C=C1CCCC2[C@](C)(CC3=C(O)C(=O)C=C(OC)C3=O)[C@@H](C)CC[C@]12C` (some centres not stated), for which the TGI in [1] is above 100 µM; in experiment [2], 17.5 µM; in experiment [3], 16 µM; in experiment [4] it was 40.2 µM; in experiment [5], 49.6 µM; in experiment [6], 36.1 µM. The TGI in experiment [7] was determined as 16.4 µM; in experiment [9], 28.5 µM.

On to `CC(=O)/C=C1\CC(=O)Nc2ccccc2N1`, for which the TGI in experiment [1], in experiment [2], in experiment [3], in [4], in experiment [5] and in experiment [6] was above 100 µM in each case. In addition, the TGI in [7] and in experiment [8] was above 100 µM in each case.

As to `CC(=O)OC1CCC2C(=CCC3C2(C)C(=O)CC2(C)C(C4(C)OC(C(C)C)=CC4=O)C(O)CC32C)C1(C)C` (configuration not stated), the TGI in experiment [1] is above 100 µM; in experiment [2] it was 66.4 µM; in experiment [3], above 100 µM; in experiment [4], 56.7 µM; in experiment [5], above 100 µM; in [6] it was 32.3 µM. Further, the TGI in experiment [8] and in experiment [9] was above 100 µM throughout.

`O=C(O)c1ccccc1N=Nc1ccc2oc(=O)c(C(=O)Nc3ccccc3)cc2c1`: the TGI in experiment [1], in [2], in experiment [3], in experiment [4], in experiment [5] and in experiment [6] was above 100 µM throughout. Moreover, the results for the TGI in experiment [7], in experiment [8] and in [9] were 59.4 µM, above 100 µM and above 100 µM, respectively.

As for `CC(C)C(=O)[O-].CC(C)C(=O)[O-].N.N.N.N.[Co+3].[O-][Cl+3]([O-])([O-])[O-]`, the GI50 in experiment [1], in experiment [2], in [3], in [4], in [5] and in experiment [6] was above 100 µM throughout. Further, the GI50 in experiment [7], in [8] and in [9] was above 100 µM throughout. Besides, the TGI in experiment [1], in experiment [2], in experiment [3], in experiment [4], in experiment [5] and in experiment [6] was above 100 µM each time. Further, the TGI in experiment [7], in experiment [8] and in experiment [9] was above 100 µM in each case.

On to `CCOC(=O)C(C)(C)Oc1ccc2c(-c3ccc(Cl)cc3)c(-c3ccc(Cl)cc3)c(=O)oc2c1`, for which the TGI in [1], in [2], in [3], in [4], in [5] and in experiment [6] was above 100 µM each time. For the same compound, the TGI in experiment [7] and in experiment [8] was above 100 µM each time.

With `CCN(CC)c1ccc(N=C2C=C(Cl)C(=O)c3ncccc32)c(C)c1`, the TGI stood at 18 µM in experiment [1]; 39 µM in experiment [2]; 32 µM in [3]; 90.3 µM in [4]; 20.8 µM in experiment [5]; 30.2 µM in experiment [6]. In addition, the TGI in experiment [7] was 7.29 µM; in experiment [8], 13.8 µM.

Regarding `CC(NC(=O)C(=O)N/N=C1\C[C@@H](c2ccccc2)Nc2ccccc21)c1ccccc1` (some centres not stated), the TGI in experiment [1], in experiment [2], in experiment [6], in experiment [7] and in experiment [9] was above 100 µM throughout.

Regarding `CCOC(=O)c1ccc(N2C(=O)Cc3ccccc3C2=O)cc1`, the TGI in experiment [1], in experiment [3], in [4], in [5], in experiment [6] and in experiment [7] was above 100 µM in each case. Further, in experiment [8], the TGI was above 100 µM.
